From patent US20240317708A1, “INHIBITORS OF TRANSGLUTAMINASES” (ZEDIRA GMBH, priority 2021, published 2024)

How the values were obtained:
[1] = Log D shake flask method (octanol / PBS pH 7.4, HPLC); assay type: physicochemical; conditions: octanol/phosphate-buffered saline (PBS); octanol / PBS pH 7.4, shake flask
Description: In order to classify the inventive compounds according to their lipophilicity, Log D values (distribution coefficient) were determined by means of the well-established shake flask method, measuring the partition of a compound between an octanol and phosphate-buffered saline (PBS, pH 7.4) by HPLC.

[2] = Caco-2 permeability assay (CacoReady kit); assay type: in vitro ADME; conditions: human
Outline: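 Caco-2 monolayer barrier, commercial ready-to-use kit, manufacturer protocol. Read-out: Papp.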

[3] = biological target: T1, recombinant human transglutaminase 2 (Homo sapiens, UniProt P21980); assay: Transglutaminase assay (dansylcadaverine incorporation into dimethylcasein, DCC-assay); assay type: biochemical; conditions: recombinant human TG2 10 nM, dansylcadaverine/dimethylcasein, 37° C.
T1 construct: purchased Zedira T022
T1 sequence (P21980 1-687): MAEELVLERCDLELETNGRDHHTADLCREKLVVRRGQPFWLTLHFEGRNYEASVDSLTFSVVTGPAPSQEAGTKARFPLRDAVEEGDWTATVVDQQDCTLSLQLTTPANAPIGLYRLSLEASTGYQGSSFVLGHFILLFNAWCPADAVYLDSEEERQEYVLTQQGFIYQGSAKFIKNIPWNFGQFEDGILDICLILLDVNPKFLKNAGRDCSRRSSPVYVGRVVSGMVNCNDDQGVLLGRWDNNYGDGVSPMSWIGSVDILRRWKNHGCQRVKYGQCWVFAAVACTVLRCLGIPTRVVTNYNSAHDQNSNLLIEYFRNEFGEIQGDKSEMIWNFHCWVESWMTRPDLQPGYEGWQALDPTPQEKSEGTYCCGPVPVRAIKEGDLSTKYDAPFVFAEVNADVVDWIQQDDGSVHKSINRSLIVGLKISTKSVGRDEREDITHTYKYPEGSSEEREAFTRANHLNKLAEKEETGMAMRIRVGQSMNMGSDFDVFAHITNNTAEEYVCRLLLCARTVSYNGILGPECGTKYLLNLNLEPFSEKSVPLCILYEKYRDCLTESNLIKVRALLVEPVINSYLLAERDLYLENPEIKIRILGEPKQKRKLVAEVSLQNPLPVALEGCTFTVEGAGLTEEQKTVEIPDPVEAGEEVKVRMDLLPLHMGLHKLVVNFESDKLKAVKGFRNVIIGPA
Outline: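 IC50 derived from fluorescence slope between 20 and 30 min (λex 330 nm, λem 500 nm, 37 °C), expressed relative to a 2% DMSO control. Reaction: 10 nM recombinant human TG2, 4 μM dimethylcasein, 16.7 μM dansylcadaverine, 10 mM CaCl2 and glutathione, pH 8.0.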

COC(=O)/C=C/CC[C@H](NC(=O)c1oc2ccccc2c1C)C(=O)Nc1cccn(CC(=O)N[C@@H]2C[C@H]3CC[C@@H]2C3)c1=O [III-63, (S,E)-methyl 7-(1-(2-((1R,2R,4S)-bicyclo[2.2.1]heptan-2-ylamino)-2-oxoethyl)-2-oxo-1,2-dihydropyridin-3-ylamino)-6-(3-methylbenzofuran-2-carboxamido)-7-oxohept-2-enoate]
logD [1]: 3 to 5
Papp [2]: 1 to 10 ×10⁻⁶ cm/s
IC50 [3]: < 25 nM

COC(=O)/C=C/CC[C@H](NC(=O)c1cnnn1C)C(=O)Nc1cccn(CC(=O)NC23CC4CC(C)(CC(C)(C4)C2)C3)c1=O [III-114, (S,E)-methyl 7-(1-(2-(3,5-dimethyladamantane-1-amino)-2-oxoethyl)-2-oxo-1,2-dihydropyridin-3-ylamino)-6-(1-methyl-1H-1,2,3-triazole-5-carboxamido)-7-oxohept-2-enoate]
logD [1]: 1 to 3
Papp [2]: < 1 ×10⁻⁶ cm/s
IC50 [3]: < 25 nM

COC(=O)/C=C/CC[C@H](NC(=O)c1nonc1N)C(=O)Nc1cccn(CC(=O)NC23CC(C2)C3)c1=O [III-160, (S,E)-methyl 6-(4-amino-1,2,5-oxadiazole-3-carboxamido)-7-(1-(2-(bicyclo[1.1.1]pentan-1-ylamino)-2-oxoethyl)-2-oxo-1,2-dihydropyridin-3-ylamino)-7-oxohept-2-enoate]
logD [1]: < 1
Papp [2]: < 1 ×10⁻⁶ cm/s
IC50 [3]: 250 to 1500 nM

COC(=O)/C=C/CC[C@H](NC(=O)c1cn(C)nn1)C(=O)Nc1cccn(CC(=O)NC2C3CC4CC(C3)CC2C4)c1=O (stereo partly drawn) [III-103, (S,E)-methyl 7-(1-(2-(2-adamantylamino)-2-oxoethyl)-2-oxo-1,2-dihydropyridin-3-ylamino)-6-(1-methyl-1H-1,2,3-triazole-4-carboxamido)-7-oxohept-2-enoate]
logD [1]: 1 to 3
Papp [2]: 1 to 10 ×10⁻⁶ cm/s
IC50 [3]: 25 to 250 nM

COC(=O)/C=C/CC[C@H](NC(=O)c1oc2ccccc2c1C)C(=O)Nc1cccn(CC(=O)NC23CC4CC(CC(F)(C4)C2)C3)c1=O [III-51, (S,E)-methyl 7-(1-(2-(3-fluoroadamantan-1-amino)-2-oxoethyl)-2-oxo-1,2-dihydropyridin-3-ylamino)-6-(3-methylbenzofuran-2-carboxamido)-7-oxohept-2-enoate]
logD [1]: 3 to 5
Papp [2]: 1 to 10 ×10⁻⁶ cm/s
IC50 [3]: < 25 nM

COC(=O)/C=C/CC[C@H](NC(=O)c1cncc([N+](=O)[O-])c1)C(=O)Nc1cccn(CC(=O)NC2C3CC4CC(C3)CC2C4)c1=O (stereo partly drawn) [III-34, (S,E)-methyl 7-(1-(2-(2-adamantylamino)-2-oxoethyl)-2-oxo-1,2-dihydropyridin-3-ylamino)-6-(5-nitronicotinamido)-7-oxohept-2-enoate]
logD [1]: 3 to 5
Papp [2]: < 1 ×10⁻⁶ cm/s
IC50 [3]: < 25 nM

CCOC(=O)/C=C/CC[C@H](NC(=O)c1cncn1C)C(=O)Nc1cccn(CC(=O)NC2C3CC4CC(C3)CC2C4)c1=O (stereo partly drawn) [III-99, (S,E)-ethyl 7-(1-(2-(2-adamantylamino)-2-oxoethyl)-2-oxo-1,2-dihydropyridin-3-ylamino)-6-(1-methyl-1H-imidazole-5-carboxamido)-7-oxohept-2-enoate]
logD [1]: 3 to 5
Papp [2]: < 1 ×10⁻⁶ cm/s
IC50 [3]: 25 to 250 nM

Cn1cncc1C(=O)N[C@@H](CC/C=C/S(C)(=O)=O)C(=O)Nc1cccn(CC(=O)NC2C3CC4CC(C3)CC2C4)c1=O (stereo partly drawn) [III-100, (S,E)-N-(1-(1-(2-(2-adamantylamino)-2-oxoethyl)-2-oxo-1,2-dihydropyridin-3-ylamino)-6-(methylsulfonyl)-1-oxohex-5-en-2-yl)-1-methyl-1H-imidazole-5-carboxamide]
logD [1]: 1 to 3
Papp [2]: < 1 ×10⁻⁶ cm/s
IC50 [3]: 25 to 250 nM

Cc1cn2c(C(=O)N[C@@H](CC/C=C/C(=O)NC(C)C)C(=O)Nc3cccn(CC(=O)NC45CC(C4)C5)c3=O)csc2n1 [III-141, (S,E)-N7-(1-(2-(bicyclo[1.1.1]pentan-1-ylamino)-2-oxoethyl)-2-oxo-1,2-dihydropyridin-3-yl)-N1-isopropyl-6-(6-methylimidazo[2,1-b]thiazole-3-carboxamido)hept-2-enediamide]
logD [1]: < 1
Papp [2]: 1 to 10 ×10⁻⁶ cm/s
IC50 [3]: 250 to 1500 nM

COC(=O)/C=C/CC[C@H](NC(=O)c1oc2ccccc2c1C)C(=O)Nc1cccn(CC(=O)NC2C3CC4CC2CC(F)(C4)C3)c1=O (stereo partly drawn) [III-39, (S,E)-methyl 7-(1-(2-(5-fluoroadamantan-2-amino)-2-oxoethyl)-2-oxo-1,2-dihydropyridin-3-ylamino)-6-(3-methylbenzofuran-2-carboxamido)-7-oxohept-2-enoate]
logD [1]: 3 to 5
Papp [2]: 1 to 10 ×10⁻⁶ cm/s
IC50 [3]: < 25 nM

COC(=O)/C=C/CC[C@H](NC(=O)[C@@H]1C[C@H](Br)CN1)C(=O)Nc1cccn(CC(=O)NC2C3CC4CC(C3)CC2C4)c1=O (stereo partly drawn) [III-27, (S,E)-methyl 6-((2S,4S)-4-bromopyrrolidine-2-carboxamido)-7-(1-(2-(2-adamantylamino)-2-oxoethyl)-2-oxo-1,2-dihydropyridin-3-ylamino)-7-oxohept-2-enoate]
logD [1]: 3 to 5
Papp [2]: < 1 ×10⁻⁶ cm/s
IC50 [3]: 25 to 250 nM

COC(=O)/C=C/CC[C@H](NC(=O)c1cncn1C)C(=O)Nc1cccn(CC(=O)N[C@H]2C[C@H]3CC[C@]2(C)C3(C)C)c1=O [III-60, (S,E)-methyl 6-(1-methyl-1H-imidazole-5-carboxamido)-7-oxo-7-(2-oxo-1-(2-oxo-2-((1R,2S,4R)-1,7,7-trimethylbicyclo[2.2.1]heptan-2-ylamino)ethyl)-1,2-dihydropyridin-3-ylamino)hept-2-enoate]
logD [1]: 3 to 5
Papp [2]: < 1 ×10⁻⁶ cm/s
IC50 [3]: < 25 nM

COC(=O)/C=C/CC[C@H](NC(=O)c1cc2ccc(N(C)C)cc2o1)C(=O)Nc1cccn(CC(=O)NC23CC(C2)C3)c1=O [III-161, (S,E)-methyl 7-(1-(2-(bicyclo[1.1.1]pentan-1-ylamino)-2-oxoethyl)-2-oxo-1,2-dihydropyridin-3-ylamino)-6-(6-(dimethylamino)benzofuran-2-carboxamido)-7-oxohept-2-enoate]
logD [1]: 1 to 3
Papp [2]: < 1 ×10⁻⁶ cm/s
IC50 [3]: 250 to 1500 nM

COC(=O)/C=C/CC[C@H](NC(=O)c1oc2ccccc2c1C)C(=O)Nc1cccn(CC23CC4CC(CC(O)(C4)C2)C3)c1=O [III-80, (6S,E)-methyl 7-(1-((3-hydroxy-1-adamantyl)methyl)-2-oxo-1,2-dihydropyridin-3-ylamino)-6-(3-methylbenzofuran-2-carboxamido)-7-oxohept-2-enoate]
logD [1]: 1 to 3
Papp [2]: < 1 ×10⁻⁶ cm/s
IC50 [3]: 250 to 1500 nM

COC(=O)/C=C/CC[C@H](NC(=O)c1ncn(C)n1)C(=O)Nc1cccn(CC(=O)NC2C3CC4CC(C3)CC2C4)c1=O (stereo partly drawn) [III-105, (S,E)-methyl 7-(1-(2-(2-adamantylamino)-2-oxoethyl)-2-oxo-1,2-dihydropyridin-3-ylamino)-6-(1-methyl-1H-1,2,4-triazole-3-carboxamido)-7-oxohept-2-enoate]
logD [1]: 1 to 3
Papp [2]: 1 to 10 ×10⁻⁶ cm/s
IC50 [3]: 25 to 250 nM

COC(=O)/C=C/CC[C@H](NC(=O)c1cc2cc(Br)ccc2s1)C(=O)Nc1cccn(CC(=O)NC2C3CC4CC(C3)CC2C4)c1=O (stereo partly drawn) [III-6, (S,E)-methyl 6-(5-bromobenzo[b]thiophene-2-carboxamido)-7-(1-(2-(2-adamantylamino)-2-oxoethyl)-2-oxo-1,2-dihydropyridin-3-ylamino)-7-oxohept-2-enoate]
logD [1]: 3 to 5
Papp [2]: 1 to 10 ×10⁻⁶ cm/s
IC50 [3]: < 25 nM
